Measurements published in the supplement of paper PMC10307832.

Assays:
Experiment in all cases: relative viability (nuclei count vs DMSO), 5 days (fraction); higher = more cells survive
XMD13-2 + Dasatinib = compound: C1CC1C(=O)NC2=NNC3=C2C=CC(=C3)C4=CC(=CC=C4)C(=O)NC5CC5 [XMD13-2] + Cc1nc(Nc2ncc(C(=O)Nc3c(C)cccc3Cl)s2)cc(N2CCN(CCO)CC2)n1 [Dasatinib] (partner 0.075 µM)
Outline: (§1)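 Cells from lung cancer lines were seeded into 1536-well plates and, one day later, dosed by pin tool. Treatments were either a single drug or a fixed dose of an anchor drug with five library-drug doses (not always all listed) in √10 steps. After 5 days, nuclei were stained in a one-step fixation (final 0.05% Triton X-100, 1% formaldehyde, 1 ug/ml Hoechst) and counted on 4× images, and relative viability is the treated-to-vehicle nuclei ratio, as the median of duplicate plates.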

ALW-II-49-7 + Alpelisib = compound: Cc1ccc(C(=O)Nc2cccc(C(F)(F)F)c2)cc1Nc1cncc(C(N)=O)c1 [ALW-II-49-7] + Cc1nc(NC(=O)N2CCC[C@H]2C(N)=O)sc1-c1ccnc(C(C)(C)C(F)(F)F)c1 [Alpelisib] (partner 2 µM)
Outline: as §1

Dasatinib + Luminespib = compound: Cc1nc(Nc2ncc(C(=O)Nc3c(C)cccc3Cl)s2)cc(N2CCN(CCO)CC2)n1 [Dasatinib] + CCNC(=O)c1noc(-c2cc(C(C)C)c(O)cc2O)c1-c1ccc(CN2CCOCC2)cc1 [Luminespib] (partner 0.01 µM)
Outline: as §1

Dasatinib + Decitabine = compound: Cc1nc(Nc2ncc(C(=O)Nc3c(C)cccc3Cl)s2)cc(N2CCN(CCO)CC2)n1 [Dasatinib] + Nc1ncn([C@H]2C[C@H](O)[C@@H](CO)O2)c(=O)n1 [Decitabine] (partner 2 µM)
Outline: as §1

Cell Line	relative viability (XMD13-2 + Dasatinib; first compound 0.05 µM)	relative viability (XMD13-2 + Dasatinib; first compound 0.1581 µM)	relative viability (XMD13-2 + Dasatinib; first compound 0.5 µM)	relative viability (XMD13-2 + Dasatinib; first compound 1.581 µM)	relative viability (XMD13-2 + Dasatinib; first compound 5 µM)	relative viability (ALW-II-49-7 + Alpelisib; first compound 0.08 µM)	relative viability (ALW-II-49-7 + Alpelisib; first compound 0.253 µM)	relative viability (ALW-II-49-7 + Alpelisib; first compound 0.8 µM)	relative viability (ALW-II-49-7 + Alpelisib; first compound 2.53 µM)	relative viability (ALW-II-49-7 + Alpelisib; first compound 8 µM)	relative viability (Dasatinib + Luminespib; first compound 0.005 µM)	relative viability (Dasatinib + Luminespib; first compound 0.01581 µM)	relative viability (Dasatinib + Luminespib; first compound 0.05 µM)	relative viability (Dasatinib + Luminespib; first compound 0.1581 µM)	relative viability (Dasatinib + Luminespib; first compound 0.5 µM)	relative viability (Dasatinib + Decitabine; first compound 0.005 µM)	relative viability (Dasatinib + Decitabine; first compound 0.01581 µM)	relative viability (Dasatinib + Decitabine; first compound 0.05 µM)	relative viability (Dasatinib + Decitabine; first compound 0.1581 µM)	relative viability (Dasatinib + Decitabine; first compound 0.5 µM)
PC-3 [JPC-3]	1.22	0.991	1	0.959	1.11	1.02	0.989	0.987	1.09	1.02	0.741	0.646	0.76	0.576	0.389	0.799	0.802	0.81	0.755	0.623
HCC-44						0.796	0.854	0.887	0.752	0.592	1.15	1.01	0.733	0.604	0.453	1.04	0.915	1.04	0.886	0.624
NCI-H2405	0.211	0.259	0.239	0.171	0.226	0.741	0.829	0.743	0.248	0.753	0.501	0.309	0.309	0.247	0.142	0.693	0.489	0.45	0.293	0.219
LXF-289	0.301	0.239	0.242	0.141	0.205	1.07	1.01	1.01	1.17	1.08	0.745	0.564	0.648	0.334	0.138	0.398	0.336	0.31	0.358	0.142
LOU-NH91	0.591	0.586	0.566	0.479	0.525	0.648	0.72	0.729	0.388	0.797	0.348	0.348	0.285	0.259	0.27	0.83	0.819	0.743	0.66	0.421
A549						0.82	0.756	0.728	0.802	0.712						0.222	0.236	0.307	0.173	0.178
H3255	0.425	0.402	0.367	0.294	0.373	0.828	0.743	0.73	0.403	0.511	0.919	0.901	0.793	0.919	0.371	0.66	0.573	0.568	0.493	0.311
NCI-H1395	0.459	0.428	0.402	0.394	0.441	1.22	1.1	1.04	0.307	1.09	0.684	0.627	0.663	0.443	0.363	0.73	0.669	0.694	0.57	0.326
